Columns and labels:
[1] = In vitro release study, Automated Franz Diffusion Cell System, Higuchi model fit; format: physicochemical; conditions: 37° C., PBS pH7.4, 24 hours, regenerated cellulose membrane
Experimental: Four different samples were run in 6 diffusate chamber volume of 4 ml […] PBS solution at pH7.4, with 0.6362 cm^2 effective diffusion area, under 400 rpm stirring and circulation of water bath at 37±1° C. throughout the experiments. Approximately 500 mg of each sample was loaded on the regenerated cellulose membrane surface (5000 Da molecular weight cut-off) in the retentate compartment, which was pre-soaked overnight, to be evaluated for 24 hours. At predetermined intervals, samples were withdrawn to be determined spectrophotometrically for the drug content and replaced with fresh receiving medium. The calculations are done based on average of six measurements from six different retentate compartments.

[2] = log P of the compound used / encapsulated; cited from earlier work

Row | SMILES | Slope (release rate, Higuchi Model) ([1]; In NLC (NLC-1, NLC-2, NLC-3)) | Slope (release rate, Higuchi Model) ([1]; In cream (C1, C2, C3)) | Slope (release rate, Higuchi Model) ([1]; In solution (A1, A2, A3)) | Log P [2]
1 | CN(C)c1ccc2cc3ccc(N(C)C)cc3nc2c1 [Acridine orange, acridine orange] | 0.43 | 4.12 | 19.15 | 
2 | O=S(=O)(O)c1cc2cc(S(=O)(=O)O)c(N=Nc3ccccc3[As](=O)(O)O)c(O)c2c(O)c1N=Nc1ccccc1[As](=O)(O)O [Arsenazo III, arsenazo III] | 8.93 | 11.48 | 19.25 | 0.49
